Experimental data: PubChem BioAssay AID1996
In brackets after ≈: the same amount, converted by molar mass.

Details: buffer; pH 7.4; 200.0 µM

| SMILES | solubility kinetic [µg/mL] |
| --- | --- |
| COc1ccc(NC(=O)Nc2ccccc2SC)cc1OC | 0.6 (≈ 1.88 µM) |
| S=C(Nc1ccccc1)NC1CCN(Cc2ccccc2)CC1 | > 48.8 |
| Cc1cc(C)c2c(CC(=O)O)c(C)[nH]c2c1 | 28.5 (≈ 131 µM) |
| Cc1cc(NC(=O)CSc2ncc(C(F)(F)F)cc2Cl)no1 | 1.2 (≈ 3.41 µM) |
| Cn1c(/C(C#N)=C(\O)c2cc(Cl)sc2Cl)nc2ccccc21 | 0.9 (≈ 2.57 µM) |
| NC(=O)c1ccsc1NC(=O)c1ccc([N+](=O)[O-])o1 | 20.5 (≈ 72.9 µM) |
| CCc1cc(C(=O)c2ccc(OC)cc2)c(NC(=O)CN2CCCCC2)s1 | < 0.4 |
| O=C(COC(=O)CCC(=O)c1ccc(F)cc1)NCc1ccccc1Cl | > 56.7 |
| CSCCC(NS(=O)(=O)c1ccc(C)cc1C)C(=O)Nc1cccnc1 (stereo not drawn) | > 59 |
| CCOC(=O)C1CCCN(S(=O)(=O)c2c(C)noc2C)C1 (stereo not drawn) | > 47.5 |
| CN(C)C(CNC(=O)c1cc2ccccc2o1)c1ccco1 (stereo not drawn) | > 44.8 |
| Cc1cccc(NC(=O)C(=O)NCc2ccc3c(c2)OCO3)c1C | 2 (≈ 6.13 µM) |
| O=C(/C=C/c1ccc(Cl)cc1)Nc1cc(S(=O)(=O)N2CCOCC2)ccc1N1CCOCC1 | 5.9 (≈ 12 µM) |
| O=C(NCCc1ccc(Cl)cc1)Nc1ccc(Cl)cc1 | < 0.3 |
| CCCNC(=O)N1CCN(C(c2ccccc2)c2ccccc2)CC1 | 3.9 (≈ 11.6 µM) |
| Cc1ccc(S(=O)(=O)N2CCC(C(=O)NCCN3CCOCC3)CC2)cc1C | 58.4 (≈ 143 µM) |
| CCc1ccc2c(CN3CCC(C(=O)OC)CC3)cc(=O)oc2c1 | > 49.4 |
| O=C(NN=Cc1cc(Br)c(O)c(Br)c1)c1ccccc1NS(=O)(=O)c1cccs1 | > 83.9 |
| COc1ccc(CCN2C(=O)CC(C(N)=O)SC2=Nc2ccccc2)cc1 (stereo not drawn) | 44.5 (≈ 116 µM) |
| CNc1nc(-c2ccc(S(=O)(=O)N3CCCCC3)cc2)cs1 | 2.8 (≈ 8.3 µM) |
| O=C(Cc1ccccc1)NCC(=O)N/N=C/c1ccc(C(=O)O)cc1 | > 50.9 |
| O=C(CCNC(=O)c1ccc(Br)cc1)Nc1ncccc1O | 52.3 (≈ 144 µM) |
| O=[N+]([O-])c1cncc([N+](=O)[O-])c1Nc1cccc(O)c1 | > 41.4 |
| CC(NC(=O)CSc1ccccc1C(=O)O)C1CC2CCC1C2 (stereo not drawn) | > 50 |

| SMILES | solubility kinetic [µg/mL] |
| --- | --- |
| COCCCNC(=O)c1cc2cc(Br)ccc2oc1=O | 4.4 (≈ 12.9 µM) |
| COc1ccc(NS(=O)(=O)c2cc(NC(=O)c3ccccc3)ccc2N2CCOCC2)cc1 | 13.1 (≈ 28 µM) |
| CCOC(=O)c1c(C)[nH]c(C)c1C(=O)COC(=O)CSc1ccc(C)cc1 | > 58.4 |
| O=C(NCc1c(Cl)cccc1Oc1ccccc1)c1ccccc1 | 0.9 (≈ 2.66 µM) |
| O=C(O)CN1C(=O)S/C(=C\c2cccnc2)C1=O | > 39.6 |
| Cc1ccc(OCCNC(=O)c2ccc3ccccc3n2)cc1 | 5.4 (≈ 17.6 µM) |
| NC1=NC(=Nc2ccc(S(N)(=O)=O)cc2)c2ccccc21 | > 45.1 |
| Cc1ccc(-c2cc3ccccc3nc2N)cc1 | 4 (≈ 17.1 µM) |
| O=C(C1CCCO1)N1CCN(c2ccccn2)CC1 (stereo not drawn) | 36.8 (≈ 141 µM) |
| CC(CCc1ccccc1)NC(=O)CN(C)Cc1ccc(F)cc1 (stereo not drawn) | 34.4 (≈ 105 µM) |
| CCCSc1nc2ccccc2n1CC(=O)O | > 37.5 |
| O=C(Nc1cccc(-c2cnc3ccccc3n2)c1)c1ccncc1 | 0.6 (≈ 1.84 µM) |
| Cc1ccnc(N/C=C/C(=O)c2ccc(Br)cc2)c1 | < 0.3 |
| CCC1(CC)C(=O)N(C)C(=O)NC1=NC | > 31.7 |
| O=C(Nc1cccc([N+](=O)[O-])c1)C1C2CCCCC21 (stereo not drawn) | 0.5 (≈ 1.92 µM) |
| COc1ccc(N2CCN(S(=O)(=O)c3cn(C)c(=O)n(C)c3=O)CC2)cc1 | 17.9 (≈ 45.4 µM) |
| CC(Oc1ccccc1)C(=O)N1CCN=C1SCc1ccccc1F (stereo not drawn) | 11.4 (≈ 31.8 µM) |
| O=C(Cc1ccc(Cl)c(Cl)c1)Nc1cccnc1 | > 42.2 |
| N#C/C(=C\N1CCOCC1)C(N)=O | > 27.2 |
| CCN(CC(=O)NCc1ccc(F)cc1)S(=O)(=O)c1ccc(Cl)s1 | 10.5 (≈ 26.9 µM) |
| COc1cc(C2C(C#N)=C(N)Oc3cc(C)oc(=O)c32)cc(OC)c1OC (stereo not drawn) | > 55.6 |
| CN(C)S(=O)(=O)c1cccc(C(=O)NCC2CCCCC2)c1 | 2.8 (≈ 8.63 µM) |
| Cc1cccc(C)c1OCC(O)CN1CCCCC1.Cl (stereo not drawn) | 43.4 |
| O=C(O)C(=O)O.c1ccc2c(OCCCN3CCCCCC3)cccc2c1 | 32.8 |

| SMILES | solubility kinetic [µg/mL] |
| --- | --- |
| Cc1cc(C)cc(C(=O)NCC(=O)OCC(=O)NC2CC2)c1 | > 45.7 |
| CC(C)(C(=O)c1cccnc1)c1cccnc1 | > 33.9 |
| CC(C)Cn1c(N)c(C=O)c(=O)n(C)c1=O | > 33.8 |
| COc1cc(OC)cc(C(=O)NCc2ccc3[nH]c(C)cc3c2)c1 | 3.3 (≈ 10.2 µM) |
| Cc1cc(C)c(NC(=O)COC(=O)C23CC4CC(CC(O)(C4)C2)C3)c(Cl)c1 | > 58.8 |
| Nc1nc(NCC2CCCO2)nc(Nc2ccccc2F)c1[N+](=O)[O-] (stereo not drawn) | 0.6 (≈ 1.72 µM) |
| Oc1ccc(-c2nc3ccccc3s2)cc1 | 6.6 (≈ 29 µM) |
| CCc1ccccc1N1C(=O)CC(Sc2nccc(C)n2)C1=O (stereo not drawn) | 47.3 (≈ 144 µM) |
| Cc1ccc(OCC(=O)NC2CCCCCC2)cc1C | 3.4 (≈ 12.3 µM) |
| CNC(=S)NNC(=O)c1cccc(N(C)C)c1 | > 37.9 |
| COc1cccc(NC(=O)c2cc3ccccc3oc2=O)c1 | < 0.6 |
| Cn1c(O)c(C=Nc2cccc(C(F)(F)F)c2)c(=O)n(C)c1=O | 10.6 (≈ 32.4 µM) |
| Cc1ccccc1NC(=O)/C=C/c1cccs1 | 19.5 (≈ 80.1 µM) |
| COc1ccc2c(c1)nc(CN1CCN(CCO)CC1)n2C | > 45.7 |
| N#Cc1c(-c2ccncc2)c2c([nH]c1=O)-c1ccccc1OC2 | 14.9 (≈ 49.5 µM) |
| CCc1ccccc1NC(=O)c1ccc(-c2csc(C)n2)cc1 | 1 (≈ 3.1 µM) |
| CCC(=O)N(Cc1cc(=O)[nH]c2ccccc12)c1ccccc1OC | > 50.5 |
| CC(=O)Nc1ccccc1C(=O)C(=O)Nc1cccc(Br)c1 | 29.1 (≈ 80.6 µM) |
| CN(C)/C=N/c1nccc(-c2cccs2)n1 | > 34.8 |
| Cc1ccc(NC(=O)CN2C(=O)NC(C)(c3ccc4c(c3)OCO4)C2=O)cc1 (stereo not drawn) | > 57.2 |
| Cc1ccc(SCCC(=O)Nc2cc(C)on2)cc1 | 1.3 (≈ 4.7 µM) |
| CC1CCCC(C)N1C(=O)COC(=O)CN1C(=O)c2ccccc2C1=O (stereo not drawn) | > 53.8 |
| COc1ccc(CCC(=O)NCCc2ccc(Cl)cc2)cc1 | 3.7 (≈ 11.6 µM) |
| COC(=O)C/C=N/N=C1/NC(=O)/C(=C/C(=O)O)S1 | > 40.7 |

| SMILES | solubility kinetic [µg/mL] |
| --- | --- |
| CCS(=O)c1scc(-c2ccc(Cl)cc2)c1C#N (stereo not drawn) | 20.9 (≈ 70.7 µM) |
| CCCCCCCCC1CC(C(=O)Nc2ccccc2)C(=O)O1 (stereo not drawn) | < 0.7 |
| Cc1cc(NC(=O)CSc2nc3cc(C)c(C)cc3cc2C)no1 | < 0.2 |
| CC(=O)C1=C(C)NC(=O)CC1c1ccc(F)cc1 (stereo not drawn) | > 37.1 |
| O=C1CCCCCCCN1Cc1ccccc1 | > 34.7 |
| O=C(COC(=O)c1ccc(Cl)cc1[N+](=O)[O-])NC(=O)c1ccccc1 | 4.8 (≈ 13.2 µM) |
| N#CCCN(C(=S)NC(=O)C1CCCCC1)c1ccccc1F | > 50 |
| FC(F)(F)c1cccc(CN2CCSCC2)c1 | < 0.6 |
| O=C(CSc1ncccn1)NC(=O)c1ccccc1 | 33.1 (≈ 121 µM) |
| O=C(CSc1ccccc1F)NCCN1C(=O)CSC1=O | 48.1 (≈ 146 µM) |
| OCCN(CCO)c1nc(N2CCCCC2)c2nc(N(CCO)CCO)nc(N3CCCCC3)c2n1 | 10.7 (≈ 21.2 µM) |
| Cn1c(=O)cc(Nc2ccc(Cl)cc2)[nH]c1=O | 8.7 (≈ 34.6 µM) |
| O=C(CNC(=O)c1ccccc1F)Nc1ccc2c(c1)CCC2 | 2.9 (≈ 9.28 µM) |
| CN(Cc1ccccc1)S(=O)(=O)c1ccc(Cl)c(C(=O)N2CCC(C(N)=O)CC2)c1 | > 67.5 |
| Cc1ccc(N/C=C/C(=O)c2ccco2)c(O)c1 | 1.4 (≈ 5.76 µM) |
| O=c1[nH]c(=S)[nH]c(O)c1/C=C1/C=c2ccccc2=N1 | 1.8 (≈ 6.63 µM) |
| Cc1sc(N)nc1-c1ccc2c(c1)OCCO2 | 19.5 (≈ 78.5 µM) |
| Cc1ccc(CNC(=O)CCNC(=O)c2ccc([N+](=O)[O-])cc2)cc1 | 41.2 (≈ 121 µM) |
| CSc1ccc(S(=O)(=O)NC2CC3CCC2C3)cc1 (stereo not drawn) | 29.7 (≈ 99.9 µM) |
| Cc1ccc(C)c(C(=O)CN2C(=O)NC3(CCCCCCC3)C2=O)c1 | 2.6 (≈ 7.59 µM) |
| O=C(COC(=O)c1ccc(Br)o1)NC12CC3CC(CC(C3)C1)C2 | 34.3 (≈ 89.7 µM) |
| O=C(Cc1cccc2ccccc12)Nc1ccc(O)cc1C(=O)O | > 48.2 |
| COc1ccc(-c2csc(-c3ccccc3)n2)c(OC)c1 | 3.3 (≈ 11.1 µM) |
| O=S(=O)(Nc1ccccc1)c1ccc(NS(=O)(=O)c2cccs2)cc1 | 34.4 (≈ 87.2 µM) |

| SMILES | solubility kinetic [µg/mL] |
| --- | --- |
| N#C/C(=C\c1ccncc1)c1nc2ccccc2[nH]1 | 24.8 (≈ 101 µM) |
| COc1ccccc1NC(=S)NC(=O)/C=C/c1cccs1 | 0.4 (≈ 1.26 µM) |
| O=C1CSC(=Nc2cccc(Cl)c2Cl)N1 | 37.4 (≈ 143 µM) |
| O=C(Nc1ccc(Cl)c(S(=O)(=O)N2CCOCC2)c1)c1ccc2c(c1)OCO2 | 2.6 (≈ 6.12 µM) |
| CN(Cc1ccc(F)cc1)C(=O)CN1C(=O)c2ccccc2S1(=O)=O | 49 (≈ 135 µM) |
| CN(Cc1ccc(F)cc1)C(=O)c1ccc2c(c1)NC(=O)CS2 | > 49.6 |
| Cc1ccc(C)c(NC(=O)CSc2c(C)n[nH]c2C)c1 | > 43.4 |
| O=C(Nc1ccccc1N1CCOCC1)c1ccc(Cl)nc1 | > 47.7 |
| CCN(C(=O)Cn1c(Cl)nc2c1c(=O)n(C)c(=O)n2C)C1CCCCC1 | > 57.3 |
| COc1cccc(N2CC(C(=O)Nc3ccc(F)cc3)CC2=O)c1 (stereo not drawn) | 20.3 (≈ 61.8 µM) |
| O=C(c1ccc(Cl)cc1)N1CCc2ccccc21 | 7.2 (≈ 27.9 µM) |
| Cc1cccc(N2CCN(CC3CCCCC3)CC2)c1C | 2.9 (≈ 10.1 µM) |
| CC(C)c1ccccc1NC(=O)Nc1ccc2c(c1)OCO2 | 2.7 (≈ 9.05 µM) |
| O=C(Nc1cccc2c1CCCC2)c1cccc(F)c1 | < 0.6 |
| Cc1ccc(C(=O)Nc2ccc(S(=O)(=O)N3CCCC3)cc2)cc1 | 1.6 (≈ 4.65 µM) |
| NC(=O)CSc1nc2cccnc2n1-c1ccc(F)cc1 | 45.2 (≈ 150 µM) |
| Cc1oc(/N=C/c2cccc([N+](=O)[O-])c2)c(C#N)c1C | 7.2 (≈ 26.7 µM) |
| Cc1cc(C(=O)N2CCOCC2)ccc1[N+](=O)[O-] | > 37.5 |
| O=C(Nc1cccc(OC(=O)N2CCCCC2)c1)N1CCOCC1 | > 50 |
| COc1ccc(NC(=O)CSc2nnc(N)s2)cc1S(=O)(=O)N1CCCCC1 | > 66.5 |
| COc1ccccc1OCC(=O)Nc1ccc2c(c1)n(C)c(=O)n2C | > 51.2 |
| COc1ccccc1OCCNC(=O)c1ccc(C)o1 | > 41.3 |
